Values of other authors as cited in patent publication US20260199368A1, “[…] SYSTEM CONTAINING REMIMAZOLAM” (LTS LOHMANN THERAPIE-SYSTEME AG, priority 2022, published 2026).

Settings: intranasal administration; cited from earlier work

COC(=O)CC[C@@H]1N=C(c2ccccn2)c2cc(Br)ccc2-n2c(C)cnc21 [remimazolam, methyl 3-{(4S)-8-bromo-1-methyl-6-(pyridin-2-yl)-4/-/-imidazo[1,2-a][1,4]benzodiazepin-4-yl}propanoate]
bioavailability: about 50%
